Data published in ChEMBL document CHEMBL4507276 (2021).

Experiments:
[1] = test system: Serine/threonine-protein kinase B-raf (Homo sapiens), P15056 [V600E]; conditions: Compound concentration 1000.0 nM
[2] = target: T1, 5-hydroxytryptamine receptor 1A (Homo sapiens) (UniProt P08908); conditions: Compound concentration 10.0 uM
T1 sequence (whole entry): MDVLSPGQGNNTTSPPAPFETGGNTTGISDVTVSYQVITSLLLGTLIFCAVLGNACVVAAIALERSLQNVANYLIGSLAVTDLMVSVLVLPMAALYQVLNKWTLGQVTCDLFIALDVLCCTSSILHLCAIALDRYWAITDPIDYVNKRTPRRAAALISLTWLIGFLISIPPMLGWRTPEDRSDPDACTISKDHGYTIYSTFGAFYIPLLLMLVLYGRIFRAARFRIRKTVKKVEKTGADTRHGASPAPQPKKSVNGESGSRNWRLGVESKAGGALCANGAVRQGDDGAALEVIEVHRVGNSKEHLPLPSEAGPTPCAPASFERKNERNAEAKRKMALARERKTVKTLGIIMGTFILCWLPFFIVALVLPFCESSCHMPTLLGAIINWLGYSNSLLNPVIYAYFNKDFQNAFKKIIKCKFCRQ

[3] = test system: Epidermal growth factor receptor (Homo sapiens), P00533 [L858R]; conditions: Compound concentration 1000.0 nM
[4] = target: Rho-associated protein kinase 1 (Homo sapiens) (UniProt Q13464); conditions: Compound concentration 1000.0 nM
[5] = target: T2, Serine/threonine-protein kinase D2 (Homo sapiens) (UniProt Q9BZL6); conditions: Compound concentration 1000.0 nM
T2 sequence (whole entry): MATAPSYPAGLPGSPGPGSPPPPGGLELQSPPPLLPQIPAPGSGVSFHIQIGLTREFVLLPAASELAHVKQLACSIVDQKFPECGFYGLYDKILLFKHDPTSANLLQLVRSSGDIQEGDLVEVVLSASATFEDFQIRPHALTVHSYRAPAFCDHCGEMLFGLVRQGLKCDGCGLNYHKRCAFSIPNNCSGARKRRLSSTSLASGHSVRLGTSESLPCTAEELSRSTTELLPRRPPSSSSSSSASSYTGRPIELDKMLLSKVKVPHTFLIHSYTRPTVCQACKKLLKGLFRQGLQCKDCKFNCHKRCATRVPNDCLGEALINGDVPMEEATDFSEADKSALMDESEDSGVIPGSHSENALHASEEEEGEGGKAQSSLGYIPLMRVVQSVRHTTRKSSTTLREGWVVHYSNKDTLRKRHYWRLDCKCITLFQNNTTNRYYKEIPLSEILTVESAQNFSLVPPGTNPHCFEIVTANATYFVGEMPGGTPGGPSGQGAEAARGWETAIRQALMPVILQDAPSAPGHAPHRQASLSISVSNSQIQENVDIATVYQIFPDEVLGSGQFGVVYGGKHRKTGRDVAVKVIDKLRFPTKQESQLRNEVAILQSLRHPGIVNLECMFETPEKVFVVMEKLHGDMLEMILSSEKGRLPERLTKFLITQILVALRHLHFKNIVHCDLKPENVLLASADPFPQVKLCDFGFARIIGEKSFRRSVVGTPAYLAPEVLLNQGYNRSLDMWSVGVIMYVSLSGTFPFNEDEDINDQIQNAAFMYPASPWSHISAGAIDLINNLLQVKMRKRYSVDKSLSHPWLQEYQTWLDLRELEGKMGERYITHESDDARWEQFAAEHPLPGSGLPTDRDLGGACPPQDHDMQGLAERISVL

[6] = target: Microtubule-associated serine/threonine-protein kinase 1 (Homo sapiens) (UniProt Q9Y2H9); conditions: Compound concentration 1000.0 nM
[7] = test system: Mast/stem cell growth factor receptor Kit (Homo sapiens), P10721 [V559D]; conditions: Compound concentration 1000.0 nM
Chain of Mast/stem cell growth factor receptor Kit (Homo sapiens), P10721 [V559D] (P10721 whole entry V559D): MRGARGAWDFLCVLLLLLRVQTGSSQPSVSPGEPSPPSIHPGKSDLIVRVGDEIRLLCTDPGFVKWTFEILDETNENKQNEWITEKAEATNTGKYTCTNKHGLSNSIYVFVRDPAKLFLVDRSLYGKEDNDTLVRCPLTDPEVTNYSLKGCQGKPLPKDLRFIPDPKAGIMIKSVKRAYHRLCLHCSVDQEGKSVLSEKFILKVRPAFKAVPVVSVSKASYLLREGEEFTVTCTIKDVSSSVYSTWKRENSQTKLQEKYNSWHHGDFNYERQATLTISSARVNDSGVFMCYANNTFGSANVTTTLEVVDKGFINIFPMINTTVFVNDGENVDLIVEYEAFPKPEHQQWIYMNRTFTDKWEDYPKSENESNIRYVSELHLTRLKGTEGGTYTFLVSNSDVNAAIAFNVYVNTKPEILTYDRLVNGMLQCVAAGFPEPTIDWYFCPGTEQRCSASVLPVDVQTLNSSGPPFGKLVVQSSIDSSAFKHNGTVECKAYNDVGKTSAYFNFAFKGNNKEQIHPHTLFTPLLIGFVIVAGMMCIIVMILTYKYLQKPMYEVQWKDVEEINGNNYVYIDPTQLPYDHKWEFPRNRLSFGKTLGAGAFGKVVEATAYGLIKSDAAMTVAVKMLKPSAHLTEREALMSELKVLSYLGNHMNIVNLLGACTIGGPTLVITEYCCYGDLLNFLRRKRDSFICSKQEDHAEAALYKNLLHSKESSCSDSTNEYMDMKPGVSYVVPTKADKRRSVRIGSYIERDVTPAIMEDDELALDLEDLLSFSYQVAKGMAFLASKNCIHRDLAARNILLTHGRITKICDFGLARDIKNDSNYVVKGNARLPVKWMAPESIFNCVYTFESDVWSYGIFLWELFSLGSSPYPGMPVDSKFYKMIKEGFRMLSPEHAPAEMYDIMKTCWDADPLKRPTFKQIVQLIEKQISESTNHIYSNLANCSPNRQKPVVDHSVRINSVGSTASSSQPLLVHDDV

[8] = target: Serine/threonine-protein kinase PAK 5 (Homo sapiens) (UniProt Q9P286); conditions: Compound concentration 1000.0 nM
[9] = target: D(1B) dopamine receptor (Homo sapiens) (UniProt P21918); conditions: Compound concentration 10.0 uM
[10] = target: Insulin receptor (Homo sapiens) (UniProt P06213); conditions: Compound concentration 1000.0 nM
Chain of Insulin receptor (Homo sapiens) (P06213 28-758 limits assumed): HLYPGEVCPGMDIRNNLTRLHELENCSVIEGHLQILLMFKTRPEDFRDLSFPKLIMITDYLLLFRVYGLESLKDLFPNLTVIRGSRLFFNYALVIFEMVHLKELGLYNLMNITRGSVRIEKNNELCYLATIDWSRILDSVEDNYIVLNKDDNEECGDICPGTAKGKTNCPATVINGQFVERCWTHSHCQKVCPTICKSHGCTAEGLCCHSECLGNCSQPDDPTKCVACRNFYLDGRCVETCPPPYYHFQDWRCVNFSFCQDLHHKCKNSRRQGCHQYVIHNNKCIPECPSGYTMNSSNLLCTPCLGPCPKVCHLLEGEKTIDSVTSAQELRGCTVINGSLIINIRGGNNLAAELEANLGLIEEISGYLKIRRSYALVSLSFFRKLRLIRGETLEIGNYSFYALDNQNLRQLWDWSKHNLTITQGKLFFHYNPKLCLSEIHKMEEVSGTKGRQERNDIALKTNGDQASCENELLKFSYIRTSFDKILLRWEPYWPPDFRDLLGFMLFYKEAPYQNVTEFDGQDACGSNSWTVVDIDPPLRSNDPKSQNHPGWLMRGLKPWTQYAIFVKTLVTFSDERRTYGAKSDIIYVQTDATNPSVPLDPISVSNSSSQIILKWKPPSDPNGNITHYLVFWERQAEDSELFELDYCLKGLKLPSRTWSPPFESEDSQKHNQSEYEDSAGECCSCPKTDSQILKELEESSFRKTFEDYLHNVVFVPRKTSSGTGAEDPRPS
Chain of Insulin receptor (Homo sapiens) (P06213 763-1382 limits assumed): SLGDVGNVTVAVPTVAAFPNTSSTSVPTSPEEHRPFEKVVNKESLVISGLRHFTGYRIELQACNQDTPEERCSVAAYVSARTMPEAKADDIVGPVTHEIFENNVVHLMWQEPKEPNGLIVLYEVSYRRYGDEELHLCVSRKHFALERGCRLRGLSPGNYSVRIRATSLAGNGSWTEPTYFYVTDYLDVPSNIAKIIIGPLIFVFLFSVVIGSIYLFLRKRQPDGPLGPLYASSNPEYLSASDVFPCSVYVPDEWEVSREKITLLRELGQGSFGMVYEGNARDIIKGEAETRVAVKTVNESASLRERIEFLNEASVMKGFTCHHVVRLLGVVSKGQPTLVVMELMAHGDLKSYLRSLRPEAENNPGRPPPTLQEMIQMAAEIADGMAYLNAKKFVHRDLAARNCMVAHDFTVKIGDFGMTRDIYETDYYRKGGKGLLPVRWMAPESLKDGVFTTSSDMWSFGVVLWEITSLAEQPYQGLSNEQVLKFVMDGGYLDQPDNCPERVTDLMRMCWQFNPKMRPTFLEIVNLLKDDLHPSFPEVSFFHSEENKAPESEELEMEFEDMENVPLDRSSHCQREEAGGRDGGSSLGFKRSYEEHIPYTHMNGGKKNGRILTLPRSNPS

[11] = target: Hepatocyte growth factor receptor (Homo sapiens) (UniProt P08581); conditions: Compound concentration 1000.0 nM
[12] = target: Dual specificity protein kinase CLK2 (Homo sapiens) (UniProt P49760); conditions: Compound concentration 1000.0 nM
Chain of Dual specificity protein kinase CLK2 (Homo sapiens) (P49760 whole entry, looked up): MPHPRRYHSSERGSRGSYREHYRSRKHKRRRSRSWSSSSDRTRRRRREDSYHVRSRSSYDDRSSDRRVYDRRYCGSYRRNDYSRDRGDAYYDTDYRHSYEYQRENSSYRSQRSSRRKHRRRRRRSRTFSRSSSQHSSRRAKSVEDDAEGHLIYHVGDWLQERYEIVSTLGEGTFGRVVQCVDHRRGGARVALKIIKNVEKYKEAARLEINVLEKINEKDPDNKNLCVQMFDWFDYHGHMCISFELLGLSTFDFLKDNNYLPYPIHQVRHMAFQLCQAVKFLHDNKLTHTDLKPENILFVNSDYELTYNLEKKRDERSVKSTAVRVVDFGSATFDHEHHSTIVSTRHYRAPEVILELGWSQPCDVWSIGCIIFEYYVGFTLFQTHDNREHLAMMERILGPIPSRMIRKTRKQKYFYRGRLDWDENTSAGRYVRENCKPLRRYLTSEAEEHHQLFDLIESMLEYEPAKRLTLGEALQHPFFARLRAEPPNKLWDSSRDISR

[13] = target: T3, Ephrin type-A receptor 1 (Homo sapiens) (UniProt P21709); conditions: Compound concentration 1000.0 nM
T3 sequence (whole entry): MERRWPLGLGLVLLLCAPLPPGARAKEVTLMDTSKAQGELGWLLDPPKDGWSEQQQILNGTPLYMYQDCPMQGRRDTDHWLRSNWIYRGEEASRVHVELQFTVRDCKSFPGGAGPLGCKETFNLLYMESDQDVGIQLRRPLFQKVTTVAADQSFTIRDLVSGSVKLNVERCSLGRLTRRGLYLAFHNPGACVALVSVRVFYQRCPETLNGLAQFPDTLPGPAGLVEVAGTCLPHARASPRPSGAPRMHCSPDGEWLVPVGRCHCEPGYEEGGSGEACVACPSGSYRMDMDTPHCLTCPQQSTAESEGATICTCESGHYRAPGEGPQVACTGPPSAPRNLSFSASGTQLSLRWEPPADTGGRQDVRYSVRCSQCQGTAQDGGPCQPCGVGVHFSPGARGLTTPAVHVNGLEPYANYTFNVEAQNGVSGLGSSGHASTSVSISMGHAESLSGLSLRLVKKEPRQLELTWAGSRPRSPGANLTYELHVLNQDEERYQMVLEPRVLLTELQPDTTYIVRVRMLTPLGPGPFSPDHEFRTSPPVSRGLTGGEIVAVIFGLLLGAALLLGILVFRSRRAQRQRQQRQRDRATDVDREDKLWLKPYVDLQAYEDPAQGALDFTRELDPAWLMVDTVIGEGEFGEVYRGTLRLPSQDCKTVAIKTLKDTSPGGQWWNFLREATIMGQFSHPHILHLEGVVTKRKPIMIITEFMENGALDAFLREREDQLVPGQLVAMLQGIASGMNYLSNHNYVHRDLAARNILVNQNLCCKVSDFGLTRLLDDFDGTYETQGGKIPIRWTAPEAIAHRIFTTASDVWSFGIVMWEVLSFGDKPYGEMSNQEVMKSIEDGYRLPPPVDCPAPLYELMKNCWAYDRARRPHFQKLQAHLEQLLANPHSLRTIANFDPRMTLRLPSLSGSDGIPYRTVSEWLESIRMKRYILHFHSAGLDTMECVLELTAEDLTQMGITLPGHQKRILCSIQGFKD

[14] = target: Focal adhesion kinase 1 (Homo sapiens) (UniProt Q05397); conditions: Compound concentration 1000.0 nM
Chain of Focal adhesion kinase 1 (Homo sapiens) (Q05397 2-1052 limits assumed): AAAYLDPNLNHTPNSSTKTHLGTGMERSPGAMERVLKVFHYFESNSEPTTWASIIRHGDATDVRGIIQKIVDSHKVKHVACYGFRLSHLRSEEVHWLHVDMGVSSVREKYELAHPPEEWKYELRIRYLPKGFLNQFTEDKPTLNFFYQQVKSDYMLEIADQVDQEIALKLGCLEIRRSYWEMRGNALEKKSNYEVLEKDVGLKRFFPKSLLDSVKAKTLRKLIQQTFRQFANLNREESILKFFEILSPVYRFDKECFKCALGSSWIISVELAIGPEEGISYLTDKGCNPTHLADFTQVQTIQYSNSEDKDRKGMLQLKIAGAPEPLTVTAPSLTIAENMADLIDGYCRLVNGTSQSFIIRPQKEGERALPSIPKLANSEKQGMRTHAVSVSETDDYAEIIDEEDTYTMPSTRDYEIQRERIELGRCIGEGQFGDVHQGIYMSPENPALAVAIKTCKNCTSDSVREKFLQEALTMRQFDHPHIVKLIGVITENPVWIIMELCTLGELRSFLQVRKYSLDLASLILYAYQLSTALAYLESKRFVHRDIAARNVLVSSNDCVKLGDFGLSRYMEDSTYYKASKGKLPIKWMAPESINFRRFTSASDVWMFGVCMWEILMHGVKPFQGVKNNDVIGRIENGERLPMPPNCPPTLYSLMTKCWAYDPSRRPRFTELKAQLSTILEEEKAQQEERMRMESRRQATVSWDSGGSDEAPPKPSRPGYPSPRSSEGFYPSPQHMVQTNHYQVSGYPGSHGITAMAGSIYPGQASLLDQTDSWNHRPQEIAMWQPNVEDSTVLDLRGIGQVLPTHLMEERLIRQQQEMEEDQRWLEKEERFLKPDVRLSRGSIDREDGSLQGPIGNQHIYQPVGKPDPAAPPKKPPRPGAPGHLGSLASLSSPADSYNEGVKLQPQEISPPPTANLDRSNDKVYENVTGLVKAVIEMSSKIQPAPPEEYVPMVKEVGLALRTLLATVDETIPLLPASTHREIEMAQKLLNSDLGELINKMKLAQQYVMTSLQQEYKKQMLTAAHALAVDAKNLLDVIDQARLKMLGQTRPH

Chain of Serine/threonine-protein kinase B-raf (Homo sapiens), P15056 [V600E] (P15056 whole entry V600E): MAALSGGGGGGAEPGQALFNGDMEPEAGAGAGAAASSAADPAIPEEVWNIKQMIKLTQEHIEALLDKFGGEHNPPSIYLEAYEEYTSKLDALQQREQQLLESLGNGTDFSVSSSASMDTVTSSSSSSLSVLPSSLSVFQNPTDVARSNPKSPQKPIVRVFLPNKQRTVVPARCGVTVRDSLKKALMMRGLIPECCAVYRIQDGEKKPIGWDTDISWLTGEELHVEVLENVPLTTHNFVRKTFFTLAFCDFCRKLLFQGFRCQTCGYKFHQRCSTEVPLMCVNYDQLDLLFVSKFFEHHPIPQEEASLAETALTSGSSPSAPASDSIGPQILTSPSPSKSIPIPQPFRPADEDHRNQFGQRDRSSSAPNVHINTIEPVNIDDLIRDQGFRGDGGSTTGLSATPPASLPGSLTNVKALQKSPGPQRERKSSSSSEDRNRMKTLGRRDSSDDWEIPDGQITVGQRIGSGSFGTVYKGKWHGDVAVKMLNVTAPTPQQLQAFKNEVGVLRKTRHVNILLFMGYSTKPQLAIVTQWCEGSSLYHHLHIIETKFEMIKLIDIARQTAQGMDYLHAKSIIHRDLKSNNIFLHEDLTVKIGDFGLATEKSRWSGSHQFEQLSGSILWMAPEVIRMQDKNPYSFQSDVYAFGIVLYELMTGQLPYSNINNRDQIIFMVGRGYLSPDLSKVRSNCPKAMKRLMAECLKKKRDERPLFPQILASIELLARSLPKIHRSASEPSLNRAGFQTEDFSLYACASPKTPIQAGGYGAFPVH

CN(C)C(=O)Cn1cc(-c2nc(C3(c4ccc(-c5cnc(N)nc5)cc4)CC3)no2)cn1 [BI 0153]
inactive: residual activity [1] 87% | inhibition [2] 31.5% | residual activity [3] 86% | residual activity [4] 83% | residual activity [5] 89% | residual activity [6] 100% | residual activity [7] 100% | residual activity [8] 88% | inhibition [9] 22.8% | residual activity [10] 90% | residual activity [11] 73% | residual activity [12] 94% | residual activity [13] 100% | residual activity [14] 100%

CN(C)C(=O)Cn1cc(-c2nc([C@@](C)(c3ccc(-c4cnc(N)nc4)cc3)C3CC3)no2)cn1 [BI 665915]
inactive: residual activity [1] 89% | inhibition [2] 6.78% | residual activity [3] 100% | residual activity [4] 97% | residual activity [5] 100% | residual activity [6] 97% | residual activity [7] 91% | residual activity [8] 100% | inhibition [9] 9.24% | residual activity [10] 89% | residual activity [11] 100% | residual activity [12] 96% | residual activity [13] 97% | residual activity [14] 100%
